Values quoted from earlier work in patent EP1030653B1, “DINITROANILINE LIPOSOMAL FORMULATIONS AND PROCESSES FOR THEIR PREPARATION” (INSTITUTO NACIONAL DE ENGENHARIA E TECNOLOGIA …, priority 1998, dated 2000).

Tested on: Leishmania sp

In the case of CCC1=C(C[C@H]2NCCc3cc(OC)c(OC)cc32)C[C@H]2c3cc(OC)c(OC)cc3CCN2C1 [dehydroemetine], the cure is listed as 67%.
In the case of CC(=O)N(O)CCCCCNC(=O)CCC(=O)N(O)CCCCCNC(=O)CCC(=O)N(O)CCCCCN [desferrioxiamine], the efficiency (literature (32)) is given as 44%.
For CN(Cc1cnc2nc(N)nc(N)c2n1)c1ccc(C(=O)N[C@@H](CCC(=O)O)C(=O)O)cc1 [methotrexate], the “reduction on the infection level” value (literature (10, 11)) is given as 85%.
For N=C(N)c1ccc(OCCCCCOc2ccc(C(=N)N)cc2)cc1 [pentamidine], the “efficacy (in words)” value (literature) is given as “less efficacy than antimonial derivatives”.
For CCCN(CCC)c1c([N+](=O)[O-])cc(C(F)(F)F)cc1[N+](=O)[O-] [trifluralin], the “activity against the visceral forms” value (topical route, literature (12)) is given as “no activity”.
